Values of other authors, collected in patent US7291720B2, “Use of sublethal concentrations of anti-invasin compounds to therapeutically or prophylactically treat fungal infections” (priority 2000, dated 2007).

Columns and labels:
[1] = test system: susceptible isolate of C. albicans; conditions: in vitro
[2] = about half necessitated discontinuation of therapy

## OC(Cn1cncn1)(Cn1cncn1)c1ccc(F)cc1F [fluconazole]
[1]
  concentration that reduces hyphal formation: 0.1 µg/mL
[2]
  patients with adverse reactions, possibly related to the treatment: over 5%
